Measurements: US20250353891A1 (MEDIMMUNE LIMITED, priority 2022, published 2025)
Starred links: 1 amine or outer side, 2 acyl side, 3 side chain; linkers in the order of their positions; H or OH if unused. Non-standard residues stand in square brackets, D forms with d. Residues, ends and D or L forms follow the SMILES beside them. Groups on a side chain read outwards from the residue. *: point of attachment. C18 diacid = O=C(O)CCCCCCCCCCCCCCCCC(=O)*; γGlu = O=C(O)[C@H](CCC(=O)[*:2])N[*:1]; Stearoyl = CCCCCCCCCCCCCCCCCC(=O)*; Palmitoyl = CCCCCCCCCCCCCCCC(=O)*; αMeF = C[C@](N)(Cc1ccccc1)C(=O)O; PEG2 = NCCOCCOCCC(=O)O; AEEA = NCCOCCOCC(=O)O; Aib = CC(C)(N)C(=O)O

Legend:
[1] = molecular target: human glucagon receptor (hGCGR) (Homo sapiens, UniProt P47871); test: cAMP production (HTRF) in CHO cells expressing hGCGR; type: cell-based; parameters: expressed in transfected cells; details: Table 6, peptides modified at position 17; cAMP in CHO hGCGR cells; geometric mean; read-out: hGluc-R EC50
Sequence of human glucagon receptor (hGCGR) (P47871 26-477): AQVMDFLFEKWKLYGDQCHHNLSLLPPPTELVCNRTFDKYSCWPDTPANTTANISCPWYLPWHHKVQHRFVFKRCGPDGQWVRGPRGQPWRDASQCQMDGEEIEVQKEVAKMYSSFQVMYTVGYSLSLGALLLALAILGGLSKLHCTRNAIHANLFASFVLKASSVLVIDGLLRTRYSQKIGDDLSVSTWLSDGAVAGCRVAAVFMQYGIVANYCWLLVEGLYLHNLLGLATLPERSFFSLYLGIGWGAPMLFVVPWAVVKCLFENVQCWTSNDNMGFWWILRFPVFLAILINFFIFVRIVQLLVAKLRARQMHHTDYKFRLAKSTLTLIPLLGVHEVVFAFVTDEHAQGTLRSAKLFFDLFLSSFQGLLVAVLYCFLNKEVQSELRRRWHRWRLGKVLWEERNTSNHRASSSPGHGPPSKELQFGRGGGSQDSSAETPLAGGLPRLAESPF
Method in brief: (§1)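 Potency values represent EC50 from 4-parameter logistic curves of HTRF % Delta F signal. Receptor-expressing CHO cells (hGCGR 2×10^5 cells/mL, hGLP-1R 1×10^5 cells/mL) were exposed for 30 min at room temperature before two-step cAMP detection.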

[2] = molecular target: human GLP-1 receptor (hGLP-1R) (Homo sapiens, UniProt P43220); test: cAMP production (HTRF) in CHO cells expressing hGLP-1R; type: cell-based; parameters: expressed in transfected cells; details: for EC50: Table 6, peptides modified at position 17, cAMP in CHO hGLP-1R cells, geometric mean, read-out: hGLP-1R EC50; for % Relative Potency Ratio: Table 6, % GLP-1R activity relative to GLP-1 / % GlucR activity relative to glucagon
Sequence of human GLP-1 receptor (hGLP-1R) (P43220 24-463): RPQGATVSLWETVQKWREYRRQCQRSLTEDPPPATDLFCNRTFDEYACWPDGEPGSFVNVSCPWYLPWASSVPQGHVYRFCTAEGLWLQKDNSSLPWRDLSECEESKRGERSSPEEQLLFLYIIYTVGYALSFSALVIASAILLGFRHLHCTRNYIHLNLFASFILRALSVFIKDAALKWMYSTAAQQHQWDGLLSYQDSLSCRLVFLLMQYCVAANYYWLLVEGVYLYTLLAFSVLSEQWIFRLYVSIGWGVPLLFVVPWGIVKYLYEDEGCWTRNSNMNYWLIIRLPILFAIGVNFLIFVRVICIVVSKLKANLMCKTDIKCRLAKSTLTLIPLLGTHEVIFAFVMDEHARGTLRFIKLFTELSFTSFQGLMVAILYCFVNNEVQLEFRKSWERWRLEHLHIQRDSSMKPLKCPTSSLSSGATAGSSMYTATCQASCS
Method in brief: as §1

Row | EC50 [1] | EC50 [2] | % Relative Potency Ratio [2] | Compound
1 | 121 pM | 64.8 pM | 3.7 | CCCCCCCCCCCCCCCC(=O)N[C@@H](CCC(=O)N[C@@H](CCC(=O)NCCOCCOCCC(=O)NCCOCCOCCC(=O)NCCCC[C@H](NC(=O)[C@H](CO)NC(=O)[C@H](CC(=O)O)NC(=O)[C@H](CC(C)C)NC(=O)C(C)(C)NC(=O)[C@H](CCCCN)NC(=O)[C@H](CO)NC(=O)[C@@H](NC(=O)[C@H](CC(=O)O)NC(=O)[C@H](CO)NC(=O)[C@@H](NC(=O)[C@](C)(Cc1ccccc1)NC(=O)[C@H](CO)NC(=O)CNC(=O)[C@H](CCC(N)=O)NC(=O)[C@H](CO)NC(=O)[C@@H](N)Cc1c[nH]cn1)[C@@H](C)O)C(C)C)C(=O)N[C@@H](CCC(N)=O)C(=O)N[C@@H](C)C(=O)N[C@@H](CCC(N)=O)C(=O)N[C@@H](CC(=O)O)C(=O)N[C@@](C)(Cc1ccccc1)C(=O)N[C@H](C(=O)N[C@@H](CCC(N)=O)C(=O)NC(C)(C)C(=O)N[C@H](C(=O)N[C@@H](C)C(=O)N[C@@H](CC(N)=O)C(N)=O)[C@@H](C)CC)C(C)C)C(=O)O)C(=O)O [Peptide 105] (H-HSQGS[αMeF]TSDVSK[Aib]LDSK([PEG2-PEG2-γGlu-γGlu-Palmitoyl])QAQD[αMeF]VQ[Aib]IAN-NH2)
2 | 36.8 pM | 6.82 pM | 10.7 | CCCCCCCCCCCCCCCC(=O)N[C@@H](CCC(=O)N[C@@H](CCC(=O)NCCOCCOCCC(=O)NCCOCCOCCC(=O)NCCCC[C@H](NC(=O)[C@H](CO)NC(=O)[C@H](CC(=O)O)NC(=O)[C@H](CC(C)C)NC(=O)C(C)(C)NC(=O)[C@H](CCCCN)NC(=O)[C@H](CO)NC(=O)[C@@H](NC(=O)[C@H](CC(=O)O)NC(=O)[C@H](CO)NC(=O)[C@@H](NC(=O)[C@](C)(Cc1ccccc1)NC(=O)[C@H](CO)NC(=O)CNC(=O)[C@H](CCC(N)=O)NC(=O)[C@H](CO)NC(=O)[C@@H](N)Cc1c[nH]cn1)[C@@H](C)O)C(C)C)C(=O)N[C@@H](C)C(=O)N[C@@H](C)C(=O)N[C@@H](CCC(N)=O)C(=O)N[C@@H](CC(=O)O)C(=O)N[C@@](C)(Cc1ccccc1)C(=O)N[C@H](C(=O)N[C@@H](CCC(N)=O)C(=O)N[C@@H](Cc1c[nH]cn1)C(=O)N[C@H](C(=O)N[C@@H](C)C(=O)N[C@@H](CC(N)=O)C(N)=O)[C@@H](C)CC)C(C)C)C(=O)O)C(=O)O [Peptide 106] (H-HSQGS[αMeF]TSDVSK[Aib]LDSK([PEG2-PEG2-γGlu-γGlu-Palmitoyl])AAQD[αMeF]VQHIAN-NH2)
3 | 99.1 pM | 65.9 pM | 3.0 | CCCCCCCCCCCCCCCC(=O)N[C@@H](CCC(=O)N[C@@H](CCC(=O)NCCOCCOCCC(=O)NCCOCCOCCC(=O)NCCCC[C@H](NC(=O)[C@H](CO)NC(=O)[C@H](CC(=O)O)NC(=O)[C@H](CC(C)C)NC(=O)C(C)(C)NC(=O)[C@H](CCCCN)NC(=O)[C@H](CO)NC(=O)[C@@H](NC(=O)[C@H](CC(=O)O)NC(=O)[C@H](CO)NC(=O)[C@@H](NC(=O)[C@](C)(Cc1ccccc1)NC(=O)[C@H](CO)NC(=O)CNC(=O)[C@H](CCC(N)=O)NC(=O)[C@H](CO)NC(=O)[C@@H](N)Cc1c[nH]cn1)[C@@H](C)O)C(C)C)C(=O)N[C@@H](CCC(N)=O)C(=O)N[C@@H](C)C(=O)N[C@@H](CCC(N)=O)C(=O)N[C@@H](CC(=O)O)C(=O)N[C@@](C)(Cc1ccccc1)C(=O)N[C@H](C(=O)N[C@@H](CCC(N)=O)C(=O)N[C@@H](Cc1c[nH]cn1)C(=O)N[C@H](C(=O)N[C@@H](C)C(=O)N[C@@H](CC(N)=O)C(N)=O)[C@@H](C)CC)C(C)C)C(=O)O)C(=O)O [Peptide 107] (H-HSQGS[αMeF]TSDVSK[Aib]LDSK([PEG2-PEG2-γGlu-γGlu-Palmitoyl])QAQD[αMeF]VQHIAN-NH2; N-terminus assumed)
4 | > 27100 pM | 3200 pM | – | CC[C@H](C)[C@H](NC(=O)C(C)(C)NC(=O)[C@H](CCC(N)=O)NC(=O)[C@@H](NC(=O)[C@](C)(Cc1ccccc1)NC(=O)[C@H](CC(=O)O)NC(=O)[C@H](CCC(N)=O)NC(=O)[C@H](C)NC(=O)[C@H](C)NC(=O)[C@H](CCCCNC(=O)COCCOCCNC(=O)COCCOCCNC(=O)CC[C@H](NC(=O)CCCCCCCCCCCCCCCCC(=O)O)C(=O)O)NC(=O)[C@H](CO)NC(=O)[C@H](CC(=O)O)NC(=O)[C@H](CC(C)C)NC(=O)C(C)(C)NC(=O)[C@H](CCCCN)NC(=O)[C@H](CO)NC(=O)[C@@H](NC(=O)[C@H](CC(=O)O)NC(=O)[C@H](CO)NC(=O)[C@@H](NC(=O)[C@](C)(Cc1ccccc1)NC(=O)[C@H](CO)NC(=O)CNC(=O)[C@H](CCC(N)=O)NC(=O)[C@H](CO)NC(=O)[C@@H](N)Cc1c[nH]cn1)[C@@H](C)O)C(C)C)C(C)C)C(=O)N[C@@H](C)C(=O)N[C@@H](CC(N)=O)C(N)=O [Peptide 108] (H-HSQGS[αMeF]TSDVSK[Aib]LDSK([AEEA-AEEA-γGlu-C18 diacid])AAQD[αMeF]VQ[Aib]IAN-NH2; N-terminus assumed)
5 | > 26800 pM | 698 pM | – | CC[C@H](C)[C@H](NC(=O)C(C)(C)NC(=O)[C@H](CCC(N)=O)NC(=O)[C@@H](NC(=O)[C@](C)(Cc1ccccc1)NC(=O)[C@H](CC(=O)O)NC(=O)[C@H](CCC(N)=O)NC(=O)[C@H](C)NC(=O)[C@H](C)NC(=O)[C@H](CCCCNC(=O)COCCOCCNC(=O)COCCOCCNC(=O)CC[C@H](NC(=O)CCCCCCCCCCCCCCCCC(=O)O)C(=O)O)NC(=O)[C@H](CO)NC(=O)[C@H](CC(=O)O)NC(=O)[C@H](CC(C)C)NC(=O)C(C)(C)NC(=O)[C@H](CCCCNC(C)=O)NC(=O)[C@H](CO)NC(=O)[C@@H](NC(=O)[C@H](CC(=O)O)NC(=O)[C@H](CO)NC(=O)[C@@H](NC(=O)[C@](C)(Cc1ccccc1)NC(=O)[C@H](CO)NC(=O)CNC(=O)[C@H](CCC(N)=O)NC(=O)[C@H](CO)NC(=O)[C@@H](N)Cc1c[nH]cn1)[C@@H](C)O)C(C)C)C(C)C)C(=O)N[C@@H](C)C(=O)N[C@@H](CC(N)=O)C(N)=O [Peptide 109] (H-HSQGS[αMeF]TSDVSK(Ac)[Aib]LDSK([AEEA-AEEA-γGlu-C18 diacid])AAQD[αMeF]VQ[Aib]IAN-NH2; N-terminus assumed)
6 | 48.5 pM | – | 152.9 | CCCCCCCCCCCCCCCCCC(=O)N[C@@H](CCC(=O)N[C@@H](CCC(=O)NCCOCCOCCC(=O)NCCOCCOCCC(=O)NCCCC[C@H](NC(=O)[C@H](CO)NC(=O)[C@H](CC(=O)O)NC(=O)[C@H](CC(C)C)NC(=O)C(C)(C)NC(=O)[C@H](CCCCNC(C)=O)NC(=O)[C@H](CO)NC(=O)[C@@H](NC(=O)[C@H](CC(=O)O)NC(=O)[C@H](CO)NC(=O)[C@@H](NC(=O)[C@](C)(Cc1ccccc1)NC(=O)[C@H](CO)NC(=O)CNC(=O)[C@H](CCC(N)=O)NC(=O)[C@H](CO)NC(=O)[C@@H](N)Cc1c[nH]cn1)[C@@H](C)O)C(C)C)C(=O)N[C@@H](C)C(=O)N[C@@H](C)C(=O)N[C@@H](CCC(N)=O)C(=O)N[C@@H](CC(=O)O)C(=O)N[C@@](C)(Cc1ccccc1)C(=O)N[C@H](C(=O)N[C@@H](CCC(N)=O)C(=O)NC(C)(C)C(=O)N[C@H](C(=O)N[C@@H](C)C(=O)N[C@@H](CC(N)=O)C(N)=O)[C@@H](C)CC)C(C)C)C(=O)O)C(=O)O [Peptide 110] (H-HSQGS[αMeF]TSDVSK(Ac)[Aib]LDSK([PEG2-PEG2-γGlu-γGlu-Stearoyl])AAQD[αMeF]VQ[Aib]IAN-NH2; N-terminus assumed)
7 | 2.09 pM | 1.92 pM | 2.2 | CCCCCCCCCCCCCCCC(=O)N[C@@H](CCC(=O)N[C@@H](CCC(=O)NCCOCCOCCC(=O)NCCOCCOCCC(=O)NCCCC[C@H](NC(=O)[C@H](CO)NC(=O)[C@H](CC(=O)O)NC(=O)[C@H](CC(C)C)NC(=O)[C@@H](NC(=O)[C@H](CCCCN)NC(=O)[C@H](CO)NC(=O)[C@@H](NC(=O)[C@H](CC(=O)O)NC(=O)[C@H](CO)NC(=O)[C@@H](NC(=O)[C@](C)(Cc1ccccc1)NC(=O)[C@H](CO)NC(=O)CNC(=O)[C@H](CCC(N)=O)NC(=O)[C@H](CO)NC(=O)[C@@H](N)Cc1c[nH]cn1)[C@@H](C)O)C(C)C)[C@@H](C)CC)C(=O)N[C@@H](C)C(=O)N[C@@H](C)C(=O)N[C@@H](CCC(N)=O)C(=O)N[C@@H](CC(=O)O)C(=O)N[C@@](C)(Cc1ccccc1)C(=O)N[C@H](C(=O)N[C@@H](CCC(N)=O)C(=O)NC(C)(C)C(=O)N[C@H](C(=O)N[C@@H](C)C(=O)N[C@@H](CC(N)=O)C(N)=O)[C@@H](C)CC)C(C)C)C(=O)O)C(=O)O [Peptide 111] (H-HSQGS[αMeF]TSDVSKILDSK([PEG2-PEG2-γGlu-γGlu-Palmitoyl])AAQD[αMeF]VQ[Aib]IAN-NH2)
8 | 2.69 pM | 3.36 pM | 1.6 | CCCCCCCCCCCCCCCC(=O)N[C@@H](CCC(=O)N[C@@H](CCC(=O)NCCOCCOCCC(=O)NCCOCCOCCC(=O)NCCCC[C@H](NC(=O)[C@H](CO)NC(=O)[C@H](CC(=O)O)NC(=O)[C@H](CC(C)C)NC(=O)[C@@H](NC(=O)[C@H](CCCCN)NC(=O)[C@H](CO)NC(=O)[C@@H](NC(=O)[C@H](CC(=O)O)NC(=O)[C@H](CO)NC(=O)[C@@H](NC(=O)[C@](C)(Cc1ccccc1)NC(=O)[C@H](CO)NC(=O)CNC(=O)[C@H](CCC(N)=O)NC(=O)[C@H](CO)NC(=O)[C@@H](N)Cc1c[nH]cn1)[C@@H](C)O)C(C)C)[C@@H](C)CC)C(=O)N[C@@H](C)C(=O)N[C@@H](C)C(=O)N[C@@H](CCC(N)=O)C(=O)N[C@@H](CC(=O)O)C(=O)N[C@@](C)(Cc1ccccc1)C(=O)N[C@H](C(=O)N[C@@H](CCC(N)=O)C(=O)N[C@H](C(=O)N[C@H](C(=O)N[C@@H](C)C(=O)N[C@@H](CC(N)=O)C(N)=O)[C@@H](C)CC)[C@@H](C)CC)C(C)C)C(=O)O)C(=O)O [Peptide 112] (H-HSQGS[αMeF]TSDVSKILDSK([PEG2-PEG2-γGlu-γGlu-Palmitoyl])AAQD[αMeF]VQIIAN-NH2)
